The target in data set [1] is T1, ATase (Rattus norvegicus, UniProt P24528).
T1 construct: endogenous in cells; host or cells: Yoshida
T1 sequence (P24528 1-209): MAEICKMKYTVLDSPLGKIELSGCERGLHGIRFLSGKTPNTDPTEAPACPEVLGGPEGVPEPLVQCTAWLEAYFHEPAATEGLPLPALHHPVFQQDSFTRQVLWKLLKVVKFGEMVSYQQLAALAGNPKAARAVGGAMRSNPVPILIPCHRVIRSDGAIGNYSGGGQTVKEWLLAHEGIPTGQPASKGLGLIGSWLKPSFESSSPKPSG
Briefly: Inactivation of ATase activity in Yoshida cells. The format is cell-based. How it is done: (§1) Mammalian cells were cultured under standard conditions. For example, Raji (a human lymphoblastoid cell line from a Burkitt's lymphoma) cells were grown in suspension culture in RPMI medium supplemented with 10% horse serum. A375M cells are human melanoma cells from which the xenografts described below were established following subcutaneous injection into nude mice: WiDr cells are a human colon carcinoma cell line: Hamster+120 cells are a mitozolomide-selected subline of a Chinese hamster lung fibroblast V79 cell line called RJKO: Yoshida cells are a rat carcinosarcoma cell line and YRbus is a busulphan resistant subline thereof: XP cells are an SV40-transformed fibroblast cell line originally from the skin of a Xeroderma pigmentosum patient, pHMGhAT2b cells are a clone of these cells that have been transfected with a mammalian cell expression vector containing the human ATase cDNA and pHMGla cells are a clone that have been transfected with the expression vector only (i.e. one not containing the human ATase cDNA). Cell pellets were resuspended in cold (4°C) buffer I containing 2 µg/ml leupeptin and sonicated for 10 seconds at 12 µ peak to peak distance. After cooling in ice, the cells were sonicated for a further 10 seconds at 18 µ. Immediately after sonication, 0.01 volumes of 8.7 mg/ml phenylmethanesulphonylfluoride in ethanol was added and the sonicates centrifuged at 15 000 g for 10 minutes at 4°C to pellet cell debris. The supernatant was kept for determination of ATase activity (see below).
Cells were diluted to 10^6/ml in culture medium containing either the appropriate concentration of inactivator or an equivalent volume of vehicle (DMSO). Following incubation at 37°C for 2 hours the cells were harvested by centrifugation, washed twice with PBS and the resulting cell pellets (between 1-2 x 10^7 per pellet) stored at -20°C. ATase activity was determined as described above, in duplicate sonicated cell extracts and expressed as the percentage activity remaining based on that present in the untreated controls (for example 350-450 fm/mg in Raji cells).

In a further data set the test system is A375M cells. Nature of the data set: Sensitization of A375M cells to BCNU (MTT assay). The settings on record: for A375M sensitization (D50.^C/D50.^I) 0.5uM: inactivator 0.5uM 2 hours before; for A375M sensitization (D50.^C/D50.^I) 5.0uM: inactivator 5.0uM 2 hours before. The format is cell-based, human. How it is done: Sensitization of A375M cells to the cytotoxic effects of BCNU was analysed by MTT assay ^24 differing from the XTT assay described above as follows. […] After 6 days MTT solution (4mg/ml) was added and cells incubated for 3 hours at 37°C. Medium was aspirated and the resulting purple formazan crystals were solubilised in DMSO (120μl) and cell viability was quantified by measuring absorption at 540nm using a microtitre plate reader.

The subject of data set [2] is Chinese hamster V79 cells. Briefly: Growth inhibition of V79 cells by inactivator alone. The format is cell-based. How it is done: (§2) In order to assess the effects on cell growth alone, Xeroderma pigmentosum cells and Chinese Hamster V79 cells were exposed to increasing concentrations (up to 600µM) of selected inactivators for 2h at 37°. In some cases, the inactivators were allowed to undergo hydrolysis at 37°C for 20 hours and then added to […] in order to assess the extent to which the decomposition products of the agents might inhibit cell growth. After 6 days the extent of cell growth was determined as described above.

Data set [3] in a line: Growth inhibition of Xeroderma pigmentosum cells by inactivator alone. In kind it is cell-based, human. The settings on record: human, xeroderma pigmentosum cells; Figs 5 & 6; read-out: toxic concentrations in XP cells relative to those at which sensitization to BCNU was observed. How it is done: as §2
The target of data set [4] is T2, ATase (Homo sapiens, UniProt P16455).
T2 sequence (P16455 1-207): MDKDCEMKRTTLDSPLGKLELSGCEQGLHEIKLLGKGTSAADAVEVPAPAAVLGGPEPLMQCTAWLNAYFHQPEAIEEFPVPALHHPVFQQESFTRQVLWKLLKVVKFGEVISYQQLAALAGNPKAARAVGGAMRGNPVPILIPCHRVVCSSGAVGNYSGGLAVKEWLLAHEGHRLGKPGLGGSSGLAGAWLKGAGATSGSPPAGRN
Briefly: Inactivation of ATase activity in Raji cells. In kind it is cell-based. Details: endogenous in cells; host or cells: Raji. How it is done: as §1
Cells were diluted to 10^6/ml in culture medium containing either the appropriate concentration of inactivator or an equivalent volume of vehicle (DMSO). Following incubation at 37°C for 2 hours the cells were harvested by centrifugation, washed twice with PBS and the resulting cell pellets (between 1-2 x 10^7 per pellet) stored at -20°C.

The test system of the next data set is A375 tumour xenografts. Nature of the data set: Sensitization of A375 tumour xenografts to BCNU (tumour volume). In kind it is in vivo, nude mice. The settings on record: 30 or 60 mg/kg i.p. 60 - 90 minutes prior to 10 - 25 mg/kg BCNU, Figs. 9-13, in words. Here is the method: 0X6 OPT, England (OLAC mice). […] For this reason lower doses were administered.
A375M (human melanoma) cells were grown in DMEM containing 10% fetal bovine serum. The cells were prepared for in vivo inoculation by incubation with 0.01% trypsin.
Cells (10^6) in 100µl of PBS were injected subcutaneously into the right-hand flank of 8-10 week old nu/nu athymic mice. These cells were allowed to develop into a tumour for 3-4 weeks for passaging into experimental animals. Tumour blocks measuring 2mm x 2mm x 2mm were implanted subcutaneously on the right hand flank. These animals were ready for use in inactivator experiments in 7-10 days.
Xenograft tumour measurements were taken every 1-2 days by workers using digital calipers. Tumour volume was calculated using the formula (h x w x 1) π/6. The experimental animals were also weighed every 1-2 days. Measurements continued until tumours in the control animals reached the maximum allowable volume (i.e. 1cm x 1cm x 1cm).

Data set [5] in a line: Inactivator toxicity in bone marrow cells (GM-CFC colonies, inactivator alone). The settings on record: human, bone marrow gm-cfc, inactivator 10uM, read-out: No. of colonies as % of control (ie no inactivator). The format is cell-based, human. The text has this: (§3) For the granulocyte/macrophage colony-forming cell (GM-CFC) assay primary human bone marrow samples were obtained from patients undergoing cardiothoracic surgery. […] The colonies represented precursor cells of the granulocyte/macrophage lineage (huGM-CFC). […]

The next data set relates to bone marrow cells. The description is as above. The format is cell-based, human. The following applies: 10uM, 5 patients A - E, Table 7, in words.
From the text: as §3

Results on 2 compounds are retold here after patent EP0702683B1, “06-SUBSTITUTED GUANINE DERIVATIVES, A PROCESS FOR THEIR PREPARATION AND THEIR USE IN TREATING TUMOUR CELLS” (Cancer Research Technology Limited, priority 1993, dated 1994).

Where two headings read alike, the source gives them in different places.

On to `Nc1nc(OCc2ccco2)c2nc[nH]c2n1` [B.4203, O^6-furfurylguanine], for which the IC50 at ATase [1] (Rat Yoshida cells, 2 hours at 37°C, read-out: Inactivation of ATase in Mammalian Cells I50(µM) Rat Yoshida) was determined as 0.06 µM; on ATase [4], 0.04 µM; on ATase [4] (Human Raji cells, 2 hours at 37°C (Table 5), read-out: Inactivation of ATase in Mammalian Cells I50(µM) Human Raji) it was 0.04 µM. The “A375M sensitization (D50.^C/D50.^I) 0.5uM” value in the data set with A375M cells worked out at 2.0. The “A375M sensitization (D50.^C/D50.^I) 5.0uM” value in the data set on A375M cells stood at 2.5. Also, the “toxic concentrations in V79 cells relative to those at which sensitization to BCNU was observed” value in data set [2] (Figs 5 & 6) was “at least 100 times”. Further, in data set [3], the selectivity ratio was at least 100.
For the compound `Nc1nc(OCc2cccs2)c2nc[nH]c2n1` [B.4205, O^6-thenylguanine], the IC50 at ATase [1] amounted to 0.02 µM; against ATase [4], 0.02 µM; at ATase [4] (read-out: Inactivation of ATase in Mammalian Cells I50(µM) Human Raji, Human Raji cells, 2 hours at 37°C (Table 5)) it was 0.02 µM. In addition, the “A375M sensitization (D50.^C/D50.^I) 0.5uM” value in the data set with A375M cells is listed as 2.8. In addition, in the data set on A375M cells (inactivator 1.0uM 2 hours before), the “A375M sensitization (D50.^C/D50.^I) 1.0uM” value is given as 2.3. In addition, the “A375M sensitization (D50.^C/D50.^I) 5.0uM” value in the data set on A375M cells is 3.5. Moreover, in data set [2] (inactivator alone, up to 600µM, 2h at 37°, Figure 5), the “doses producing some growth inhibition of V79 cells” value was “no such effects were seen”. For the same compound, the selectivity ratio in data set [3] is at least 100. Further, the “reducing tumour volume / sensitising human melanoma xenografts to BCNU, compared with BeG” value with A375 tumour xenografts is given as “comparable to 0^6-benzylguanine (BeG)”. Besides, the viability at 216 h, 10 µM in data set [5] (Patient A) was 91%; in data set [5] (Patient B), 46%; in data set [5] (Patient C), 97%; in data set [5] (Patient D), 118%; in data set [5] (Patient E) it was 89%. The “toxic effect of inactivator alone on bone marrow cells, compared with 0^6-benzylguanine” value in the data set with bone marrow cells is “comparable to those for 0^6-benzylguanine”.
